biological target: human TrkA receptor (Homo sapiens (Human), UniProt P04629); test: TrkA functional activity, DiscoverX PathHunter assay (NGF-stimulated U2OS cells); assay type: cell-based; details: U2OS cells expressing human TrkA-Prolink, Shc1-EA and p75NTR; compound 1 h, then NGF (~80% of maximal response) 3 h; luminescence
Method: TrkA functional activity was measured using a DiscoverX PathHunter assay. In this assay, U2OS cells express the human TrkA receptor as a fusion with the weakly complementing fragment of B-galactosidase, which DiscoverX calls “Prolink (PK)”; additionally, Shc1 is fused with a larger fragment, which is called “Enzyme Acceptor (EA)”. Activation of the TrkA receptor, upon NGF addition, results in the kinase domain being phosphorylated, resulting in subsequent recruitment of Shc1-EA protein. That recruitment results in an active B-galactosidase enzyme that is detected by addition of a chemiluminescent substrate. The human p75^NTR protein was also expressed as a co-receptor for NGF.
All reagents were purchased from DiscoverX, except for the receptor agonists (NGF, BDNF, NT3) which were purchased from Peprotech. Cells were expanded and frozen into cryovials, and stored in the vapor phase of liquid nitrogen, and thawed immediately before use. Thawed cells were added to a 384-well plate at 7500 cells/well, and allowed to incubate overnight. Compound at various concentrations was added the following morning and allowed to incubate on cells for 1 h. Then, NGF was added at a concentration sufficient to elicit ˜80% of a maximal response and allowed to incubate for 3 h at ambient temperature. DiscoverX PathHunter detection reagent was then added and the plate was further incubated for 1 h in the dark. The plate was then read via luminescence on the Perkin Elmer Envision.

human TrkA receptor, sequence (P04629 33-796): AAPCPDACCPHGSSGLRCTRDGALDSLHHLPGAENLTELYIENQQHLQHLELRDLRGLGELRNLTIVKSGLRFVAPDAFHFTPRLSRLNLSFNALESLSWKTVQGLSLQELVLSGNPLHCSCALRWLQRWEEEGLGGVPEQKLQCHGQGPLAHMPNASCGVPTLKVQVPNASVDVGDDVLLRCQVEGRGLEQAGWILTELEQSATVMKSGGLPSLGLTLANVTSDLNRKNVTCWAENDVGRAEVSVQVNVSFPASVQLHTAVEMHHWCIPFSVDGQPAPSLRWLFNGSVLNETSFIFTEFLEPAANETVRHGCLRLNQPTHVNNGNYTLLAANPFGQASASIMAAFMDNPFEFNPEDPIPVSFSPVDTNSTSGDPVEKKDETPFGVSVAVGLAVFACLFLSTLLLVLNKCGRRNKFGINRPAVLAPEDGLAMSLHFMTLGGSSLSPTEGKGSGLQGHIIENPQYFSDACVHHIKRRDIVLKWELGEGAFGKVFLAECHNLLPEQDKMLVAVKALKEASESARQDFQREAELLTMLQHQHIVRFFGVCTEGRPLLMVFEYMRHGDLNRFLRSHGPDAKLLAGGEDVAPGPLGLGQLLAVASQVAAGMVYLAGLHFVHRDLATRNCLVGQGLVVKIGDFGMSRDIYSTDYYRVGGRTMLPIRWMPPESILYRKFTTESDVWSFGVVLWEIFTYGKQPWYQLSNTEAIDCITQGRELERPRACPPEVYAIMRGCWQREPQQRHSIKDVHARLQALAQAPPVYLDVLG

Compound	IC50 [nM]
CC(O)c1nc2c(NC(=O)c3ccc(C(F)(F)F)c(-c4ccn(C)n4)c3)c(-c3ccccc3)ccc2s1 (racemic) [Compound 6, (R and S)—N-(2-(1-Hydroxyethyl)-5-phenylbenzo[d]thiazol-4-yl)-3-(1-methyl-1H-pyrazol-3-yl)-4-(trifluoromethyl)benzamide]	11
CC(O)c1n[nH]c2c(NC(=O)c3cc(-c4ncccn4)c(C(F)(F)F)cc3F)c(-c3ccccc3)ccc12 (racemic) [Compound 46, (R) and (S)-2-Fluoro-N-(3-(1-hydroxyethyl)-6-phenyl-1H-indazol-7-yl)-5-(pyrimidin-2-yl)-4-(trifluoromethyl)benzamide]	2.9
CC(O)c1n[nH]c2c(NC(=O)c3cc(-c4ncccn4)c(C(F)(F)F)cc3F)c(-c3ccccc3)ccc12 (racemic) [Compound 47, (R) and (S)-2-Fluoro-N-(3-(1-hydroxyethyl)-6-phenyl-1H-indazol-7-yl)-5-(pyrimidin-2-yl)-4-(trifluoromethyl)benzamide]	4.5
CC(O)c1cnc2c(NC(=O)c3cc(-c4ncccn4)c(C(F)(F)F)cc3F)c(-c3ccccc3)ncn12 (racemic) [Compound 71, (R and S)-2-Fluoro-N-(3-(1-hydroxyethyl)-7-phenylimidazo[1,2-c]pyrimidin-8-yl)-5-(pyrimidin-2-yl)-4-(trifluoromethyl)benzamide]	6.6
CC(O)c1nc2c(NC(=O)c3ccc(C(F)(F)F)c(-c4ccn(C)n4)c3)c(-c3ccccc3)ccc2s1 (single isomer, unassigned) [Compound 5, (R and S)—N-(2-(1-Hydroxyethyl)-5-phenylbenzo[d]thiazol-4-yl)-3-(1-methyl-1H-pyrazol-3-yl)-4-(trifluoromethyl)benzamide]	13
CC(O)c1cnc2c(NC(=O)c3cc(-c4ncccn4)c(C(F)(F)F)cc3F)c(-c3ccccc3)ccn12 (single isomer, unassigned) [Compound 9, (R) or (S)-2-Fluoro-N-(3-(1-hydroxyethyl)-7-phenylimidazo[1,2-a]pyridin-8-yl)-5-(pyrimidin-2-yl)-4-(trifluoromethyl)benzamide]	3.3
CC(O)c1cnc2c(NC(=O)c3ccc(C(F)(F)F)c(-c4ccn(C)n4)c3)c(-c3ccccc3)ccn12 (single isomer, unassigned) [Compound 14, (R) or (S)-N-[3-(1-hydroxyethyl)-7-phenylimidazo[1,2-a]pyridin-8-yl]-3-(1-methyl-1H-pyrazol-3-yl)-4-(trifluoromethyl)benzamide]	5.1
CC(O)c1cnc2c(NC(=O)c3cc(-c4cc[nH]n4)c(C(F)(F)F)cc3F)c(-c3ccccc3)ccn12 (single isomer, unassigned) [Compound 27, (R) or (S)-2-fluoro-N-[3-(1-hydroxyethyl)-7-phenylimidazo[1,2-a]pyridin-8-yl]-5-(1H-pyrazol-3-yl)-4-(trifluoromethyl)benzamide]	3.5
CC(O)c1cnc2c(NC(=O)c3cc(-c4ncccn4)c(C(F)(F)F)cc3F)c(-c3ccc(F)cc3)ccn12 (single isomer, unassigned) [Compound 52, (R) or (S)-2-fluoro-N-[7-(4-fluorophenyl)-3-(1-hydroxyethyl)imidazo[1,2-a]pyridin-8-yl]-5-pyrimidin-2-yl-4-(trifluoromethyl)benzamide]	4.9
CC(O)c1cnc2c(NC(=O)c3cc(-c4ncccn4)c(C(F)(F)F)cc3F)c(-c3ccc(F)cc3)ccn12 (single isomer, unassigned) [Compound 53, (R) or (S)-2-fluoro-N-[7-(4-fluorophenyl)-3-(1-hydroxyethyl)imidazo[1,2-a]pyridin-8-yl]-5-pyrimidin-2-yl-4-(trifluoromethyl)benzamide]	29
CC(O)c1cnc2c(NC(=O)c3cc(-c4ncccn4)c(C(F)(F)F)cc3F)c(-c3ccccc3)ncn12 (single isomer, unassigned) [Compound 72, (R and S)-2-Fluoro-N-(3-(1-hydroxyethyl)-7-phenylimidazo[1,2-c]pyrimidin-8-yl)-5-(pyrimidin-2-yl)-4-(trifluoromethyl)benzamide]	5.1
[2H]C(C)(O)c1cnc2c(NC(=O)c3cc(-c4ncccn4)c(C(F)(F)F)cc3F)c(-c3ccccc3)ccn12 (single isomer, unassigned) [Compound 74, (R and S)-2-Fluoro-N-(3-(1-hydroxyethyl-1-d)-7-phenylimidazo[1,2-a]pyridin-8-yl)-5-(pyrimidin-2-yl)-4-(trifluoromethyl)benzamide]	4.2
Cn1ccc(-c2cc(C(=O)Nc3c(-c4ccccc4)ccc4nc(C(C)(C)O)cn34)ccc2C(F)(F)F)n1 [Compound 1, N-(2-(2-Hydroxypropan-2-yl)-6-phenylimidazo[1,2-a]pyridin-5-yl)-3-(1-methyl-1H-pyrazol-3-yl)-4-(trifluoromethyl)benzamide]	17
Cn1ccc(-c2cc(C(=O)Nc3c(-c4ccccc4)ccn4cc(C(C)(C)O)nc34)ccc2C(F)(F)F)n1 [Compound 2, N-(2-(2-Hydroxypropan-2-yl)-7-phenylimidazo[1,2-a]pyridin-8-yl)-3-(1-methyl-1H-pyrazol-3-yl)-4-(trifluoromethyl)benzamide]	139
Cn1ccc(-c2cc(C(=O)Nc3c(-c4ccccc4)ccc4nc(C(C)(C)O)sc34)ccc2C(F)(F)F)n1 [Compound 3, N-(2-(2-Hydroxypropan-2-yl)-6-phenylbenzo[d]thiazol-7-yl)-3-(1-methyl-1H-pyrazol-3-yl)-4-(trifluoromethyl)benzamide]	323

Compounds with a lower IC50, results first:

IC50 [nM]	Compound
2.2	CC(O)c1cnc2c(NC(=O)c3ccc(C(F)(F)F)c(-c4ccn(C)n4)c3)c(-c3ccccc3)ccn12 (single isomer, unassigned) [Compound 15, (R) or (S)-N-[3-(1-hydroxyethyl)-7-phenylimidazo[1,2-a]pyridin-8-yl]-3-(1-methyl-1H-pyrazol-3-yl)-4-(trifluoromethyl)benzamide]
2	CC(O)c1n[nH]c2c(NC(=O)c3ccc(C(F)(F)F)c(-c4ccn(C)n4)c3)c(-c3ccccc3)ccc12 (single isomer, unassigned) [Compound 49, (R) or (S)-N-[3-(1-hydroxyethyl)-6-phenyl-1H-indazol-7-yl]-3-(1-methyl-1H-pyrazol-3-yl)-4-(trifluoromethyl)benzamide]
2	[2H]C(C)(O)c1cnc2c(NC(=O)c3cc(-c4ncccn4)c(C(F)(F)F)cc3F)c(-c3ccccc3)ccn12 (single isomer, unassigned) [Compound 75, (R and S)-2-Fluoro-N-(3-(1-hydroxyethyl-1-d)-7-phenylimidazo[1,2-a]pyridin-8-yl)-5-(pyrimidin-2-yl)-4-(trifluoromethyl)benzamide]
1.8	CC(O)c1cnc2c(NC(=O)c3cc(-c4cc[nH]n4)c(C(F)(F)F)cc3F)c(-c3ccccc3)ccn12 (single isomer, unassigned) [Compound 28, (R) or (S)-2-fluoro-N-[3-(1-hydroxyethyl)-7-phenylimidazo[1,2-a]pyridin-8-yl]-5-(1H-pyrazol-3-yl)-4-(trifluoromethyl)benzamide]
1.7	CC(O)c1cnc2c(NC(=O)c3cc(-c4ccccn4)c(C(F)(F)F)cc3F)c(-c3ccccc3)ccn12 (single isomer, unassigned) [Compound 29, (R) or (S)-2-fluoro-N-[3-(1-hydroxyethyl)-7-phenylimidazo[1,2-a]pyridin-8-yl]-5-pyridin-2-yl-4-(trifluoromethyl)benzamide]
1.1	CC(O)c1cnc2c(NC(=O)c3cc(-c4ncccn4)c(C(F)(F)F)cc3F)c(-c3ccccc3)ccn12 (single isomer, unassigned) [Compound 10, (R) or (S)-2-Fluoro-N-(3-(1-hydroxyethyl)-7-phenylimidazo[1,2-a]pyridin-8-yl)-5-(pyrimidin-2-yl)-4-(trifluoromethyl)benzamide]
0.9	CC(O)c1n[nH]c2c(NC(=O)c3ccc(C(F)(F)F)c(-c4ccn(C)n4)c3)c(-c3ccccc3)ccc12 (single isomer, unassigned) [Compound 48, (R) or (S)-N-[3-(1-hydroxyethyl)-6-phenyl-1H-indazol-7-yl]-3-(1-methyl-1H-pyrazol-3-yl)-4-(trifluoromethyl)benzamide]
0.81	CC(O)c1cnc2c(NC(=O)c3cc(-c4ccn(C)n4)c(C(F)(F)F)cc3F)c(-c3ccccc3)ccn12 (single isomer, unassigned) [Compound 25, (R) or (S)-2-fluoro-N-[3-(1-hydroxyethyl)-7-phenylimidazo[1,2-a]pyridin-8-yl]-5-(1-methyl-1H-pyrazol-3-yl)-4-(trifluoromethyl)benzamide]
0.74	CC(O)c1cnc2c(NC(=O)c3cc(-c4ccccn4)c(C(F)(F)F)cc3F)c(-c3ccccc3)ccn12 (single isomer, unassigned) [Compound 30, (R) or (S)-2-fluoro-N-[3-(1-hydroxyethyl)-7-phenylimidazo[1,2-a]pyridin-8-yl]-5-pyridin-2-yl-4-(trifluoromethyl)benzamide]
0.31	CC(O)c1cnc2c(NC(=O)c3cc(-c4ccn(C)n4)c(C(F)(F)F)cc3F)c(-c3ccccc3)ccn12 (single isomer, unassigned) [Compound 26, (R) or (S)-2-fluoro-N-[3-(1-hydroxyethyl)-7-phenylimidazo[1,2-a]pyridin-8-yl]-5-(1-methyl-1H-pyrazol-3-yl)-4-(trifluoromethyl)benzamide]
